The results in this text go back to patent EP4711369A1, “1H-[1,2,3]TRIAZOLO[4,5-H]QUINAZOLINE COMPOUNDS AS PROTEIN KINASE INHIBITORS” (Chengdu Cynogen Bio-Pharmaceutical Technology Co., Ltd., priority 2023, dated 2024).

One test concerns the target CDK2/cyclin E (Homo sapiens, UniProt P24941). The experiment in a line: Assay of kinase activity (ADP-Glo). Type of test: biochemical. As to conditions: kinase inhibitory activity, read-out: CDK2/E1 IC50. Put shortly:
(§1)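 Kinase preincubated 10 min with compound in 50 mM Hepes, 10 mM MgCl2, 0.01% Brij35, 2 mM DTT, then substrate/ATP added for 60 min at 25 °C. ADP formed measured by ADP-Glo luminescence; IC50 by nonlinear concentration-response fitting.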
(In ADP-Glo the light output rises with the ADP produced.)

A further test deals with CDK4/cyclin D1 (Homo sapiens, UniProt P11802). Nature of the test: Assay of kinase activity (ADP-Glo). Type of test: biochemical. The settings on record: kinase inhibitory activity. Put shortly: as §1
The target in another test is CDK9/cyclin T1 (Homo sapiens, UniProt P50750). The experiment in a line: Assay of kinase activity (ADP-Glo). Type of test: biochemical. The settings on record: kinase inhibitory activity. The method, boiled down: (§2)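 Human CDK6/cyclin D3 and CDK9/cyclin T1 preincubated 10 min at 25 °C with compound in 50 mM Hepes, 10 mM MgCl2, 0.01% Brij35, 2 mM DTT, then reacted 60 min at 25 °C with substrate and ATP. ADP formed measured by ADP-Glo luminescence; IC50 from nonlinear concentration-response fitting.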

Another test addresses CDK6/cyclin D3 (Homo sapiens, UniProt Q00534). The experiment in a line: Assay of kinase activity (ADP-Glo). Type of test: biochemical. As to conditions: kinase inhibitory activity. Put shortly:
as §2

The test system of test [1] is Human ovarian cancer OVCAR3 cells. Nature of the test: Assay of cell proliferation (CellTiter-Glo). Type of test: cell-based. The settings on record: Homo sapiens, OVCAR-3, 144 h, 6 days, read-out: OVCAR3 IC50 of cell proliferation inhibitory activity. The method, boiled down:
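OVCAR3 cells, 2000/well in RPMI 1640 with 20% FBS, treated with nine 3-fold dilutions from 10 µM to 0.1 nM (0.5% DMSO) for 6 days at 37 °C. Viability by CellTiter-Glo luminescence; IC50 by four-parameter fit.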
(In general: ATP-based viability assays read luminescence as a measure of living cells.)

Test [2] relates to human acute myeloid leukemia MV-4-11 cells. The experiment in a line: Assay of cell proliferation (CellTiter-Glo). Type of test: cell-based. As to conditions: MV4-11, 144 h, 6 days, read-out: MV-4-11 IC50 of cell proliferation inhibitory activity. The method, boiled down:
(§3)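 Cells seeded per line at growth-adapted densities, treated 6 days at 37 °C/5% CO2 with nine 3-fold dilutions (10 µM to 0.1 nM final, 0.5% DMSO). Viability by CellTiter-Glo luminescence; IC50 from four-parameter fit.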

Test [3] relates to human gastric cancer MKN1 cells. Nature of the test: Assay of cell proliferation (CellTiter-Glo). Type of test: cell-based. As to conditions: Homo sapiens, MKN-1, 144 h; MNK1, 6 days; read-out: MKN1 IC50 of cell proliferation inhibitory activity. The method, boiled down: as §3
Test [4] has as its system human breast cancer HCC1806 cells. Nature of the test: Assay of cell proliferation (CellTiter-Glo). Type of test: cell-based. As to conditions: Homo sapiens, 144 h, 6 days, read-out: HCC1806 IC50 of cell proliferation inhibitory activity. The method, boiled down: as §3

Sequence of CDK4/cyclin D1 (P11802 whole entry, species assumed): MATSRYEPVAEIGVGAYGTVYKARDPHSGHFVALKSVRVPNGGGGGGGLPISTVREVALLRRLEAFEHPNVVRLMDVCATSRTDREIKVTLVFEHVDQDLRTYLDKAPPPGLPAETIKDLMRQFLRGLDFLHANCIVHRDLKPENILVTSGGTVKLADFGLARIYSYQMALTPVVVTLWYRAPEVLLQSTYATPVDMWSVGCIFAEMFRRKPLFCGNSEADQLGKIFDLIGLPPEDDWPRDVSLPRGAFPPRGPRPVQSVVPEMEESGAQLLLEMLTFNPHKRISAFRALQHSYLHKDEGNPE
Sequence of CDK4/cyclin D1 (P24385 whole entry partner, species assumed): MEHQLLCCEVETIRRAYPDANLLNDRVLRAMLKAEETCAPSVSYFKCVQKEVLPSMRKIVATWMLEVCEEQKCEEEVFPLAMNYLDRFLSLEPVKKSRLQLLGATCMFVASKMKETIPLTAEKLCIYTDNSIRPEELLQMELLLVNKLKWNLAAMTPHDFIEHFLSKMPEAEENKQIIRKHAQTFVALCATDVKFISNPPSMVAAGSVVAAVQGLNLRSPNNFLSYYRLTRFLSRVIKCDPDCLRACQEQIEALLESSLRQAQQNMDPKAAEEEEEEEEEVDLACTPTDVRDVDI
Sequence of CDK6/cyclin D3 (Q00534 whole entry, species assumed): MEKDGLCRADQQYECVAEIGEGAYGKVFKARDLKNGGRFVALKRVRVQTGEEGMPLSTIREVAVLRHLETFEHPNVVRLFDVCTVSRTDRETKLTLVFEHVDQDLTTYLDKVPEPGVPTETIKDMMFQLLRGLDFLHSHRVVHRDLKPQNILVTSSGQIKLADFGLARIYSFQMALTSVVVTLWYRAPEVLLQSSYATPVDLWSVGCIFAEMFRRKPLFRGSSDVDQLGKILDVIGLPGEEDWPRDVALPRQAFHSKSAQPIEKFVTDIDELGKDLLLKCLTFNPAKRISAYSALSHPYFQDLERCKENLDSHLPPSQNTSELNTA
Sequence of CDK6/cyclin D3 (P30281 whole entry partner, species assumed): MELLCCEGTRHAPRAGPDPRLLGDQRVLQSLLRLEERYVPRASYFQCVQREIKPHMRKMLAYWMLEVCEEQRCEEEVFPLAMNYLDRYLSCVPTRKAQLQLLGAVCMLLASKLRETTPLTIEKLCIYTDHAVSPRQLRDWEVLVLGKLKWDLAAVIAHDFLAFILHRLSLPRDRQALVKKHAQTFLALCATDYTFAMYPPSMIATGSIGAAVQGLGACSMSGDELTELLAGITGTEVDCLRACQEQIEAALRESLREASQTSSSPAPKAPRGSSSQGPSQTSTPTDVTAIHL
Sequence of CDK9/cyclin T1 (P50750 whole entry, species assumed): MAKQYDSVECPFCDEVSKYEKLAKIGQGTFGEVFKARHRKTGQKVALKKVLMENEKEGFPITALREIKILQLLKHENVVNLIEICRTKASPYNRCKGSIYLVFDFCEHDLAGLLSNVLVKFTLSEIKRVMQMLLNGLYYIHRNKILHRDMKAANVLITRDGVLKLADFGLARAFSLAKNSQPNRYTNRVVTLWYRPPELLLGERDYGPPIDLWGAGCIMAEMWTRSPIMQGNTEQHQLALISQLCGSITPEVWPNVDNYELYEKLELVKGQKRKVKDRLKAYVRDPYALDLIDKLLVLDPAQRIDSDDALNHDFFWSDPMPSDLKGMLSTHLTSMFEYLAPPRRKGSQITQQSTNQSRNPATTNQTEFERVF
Sequence of CDK9/cyclin T1 (O60563 whole entry partner, species assumed): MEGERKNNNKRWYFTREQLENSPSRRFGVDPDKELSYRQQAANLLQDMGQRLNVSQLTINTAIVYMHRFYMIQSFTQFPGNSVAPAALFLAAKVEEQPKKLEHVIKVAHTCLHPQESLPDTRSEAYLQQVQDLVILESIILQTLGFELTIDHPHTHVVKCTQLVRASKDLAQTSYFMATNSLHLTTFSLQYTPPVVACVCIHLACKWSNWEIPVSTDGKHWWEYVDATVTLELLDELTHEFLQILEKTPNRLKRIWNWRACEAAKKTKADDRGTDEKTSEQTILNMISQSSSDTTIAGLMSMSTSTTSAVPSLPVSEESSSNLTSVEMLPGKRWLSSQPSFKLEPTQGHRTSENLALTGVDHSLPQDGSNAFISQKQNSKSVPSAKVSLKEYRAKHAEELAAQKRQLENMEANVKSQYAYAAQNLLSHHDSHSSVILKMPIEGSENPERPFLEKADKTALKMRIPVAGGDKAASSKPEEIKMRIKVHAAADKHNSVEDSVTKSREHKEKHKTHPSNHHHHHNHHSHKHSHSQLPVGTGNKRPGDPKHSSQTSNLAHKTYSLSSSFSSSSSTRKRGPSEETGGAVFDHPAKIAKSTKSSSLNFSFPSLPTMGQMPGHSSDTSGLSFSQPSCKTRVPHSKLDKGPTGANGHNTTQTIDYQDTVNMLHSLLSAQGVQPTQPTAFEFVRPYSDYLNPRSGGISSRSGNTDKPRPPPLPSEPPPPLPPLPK

With `CC(C)n1nnc2ccc3cnc(Nc4ccc(C(=O)N5CCC(N(C)C)CC5)c(F)c4)nc3c21` [Example I-17, (4-(Dimethylamino)piperidin-1-yl)(2-fluoro-4-((1-isopropyl-1H-[1,2,3]triazolo[4,5-H]quinazolin-8-yl)amino)phenyl)metha none], the IC50 at CDK2/cyclin E was 0.8 nM; against CDK4/cyclin D1 it was 2 nM; against CDK9/cyclin T1, 60 nM; against CDK6/cyclin D3 it was 190 nM; in test [1] it was 93 nM; in test [2], 12 nM. Further, the IC50 in test [3] is 46 nM; in test [4], 319 nM.
`C[C@@H](n1nnc2ccc3cnc(Nc4ccc(C(=O)N5CCOCC5)cc4)nc3c21)C(C)(C)O` [Example I-58, (R)-(4-((1-(3-Hydroxy-3-methylbutan-2-yl)-1H-[1,2,3]triazolo[4,5-H]quinazolin-8-yl)amino)phenyl)(morpholino)methanone]: the IC50 on CDK2/cyclin E turned out to be 1 nM; on CDK4/cyclin D1, 2 nM; on CDK9/cyclin T1, 19 nM; against CDK6/cyclin D3 it was 9 nM; in test [1], 313 nM; in test [2], 19 nM. Further, the IC50 in test [3] was 90 nM; in test [4], 656 nM.
In the case of `C[C@@H](n1nnc2ccc3cnc(Nc4ccc(C(=O)N5CCN(C)CC5)cc4)nc3c21)C(C)(C)O` [Example I-57, (R)-(4-((1-(3-Hydroxy-3-methylbutan-2-yl)-1H-[1,2,3]triazolo[4,5-H]quinazolin-8-yl)amino)phenyl)(4-methylpiperazin-1-yl)methanone], the IC50 at CDK2/cyclin E amounted to 0.9 nM; at CDK4/cyclin D1, 1 nM; at CDK9/cyclin T1 it was 23 nM; against CDK6/cyclin D3, 4 nM; in test [1] it was 32 nM; in test [2] it was 11 nM. Moreover, the values for the IC50 in test [3] and in test [4] were 17 nM and 465 nM, respectively.
As to `C[C@@H](n1nnc2ccc3cnc(Nc4ccc(C(=O)N5CCCNCC5)cc4)nc3c21)C(C)(C)O` [Example I-60, (R)-(1,4-Diazepan-1-yl)(4-((1-(3-hydroxy-3-methylbutan-2-yl)-1H-[1,2,3]triazolo[4,5-H]quinazolin-8-yl)amino)phenyl)methanone], the IC50 at CDK2/cyclin E stood at 0.8 nM; against CDK4/cyclin D1, 1 nM; on CDK9/cyclin T1, 19 nM; at CDK6/cyclin D3 it was 3 nM; in test [1], 88 nM; in test [2], 12 nM. The IC50 in test [3] came to 41 nM; in test [4], 98 nM.
With `CC(C)n1nnc2ccc3cnc(Nc4ccc(C(=O)N5CC6CC(C5)N6)cc4)nc3c21` [Example I-24, (3,6-Diazabicyclo[3.1.1]heptan-3-yl)(4-((1-isopropyl-1H-[1,2,3]triazolo[4,5-H]quinazolin-8-yl)amino)phenyl)metha none], the IC50 on CDK2/cyclin E came to 0.1 nM; against CDK4/cyclin D1 it was 1 nM; against CDK9/cyclin T1, 8 nM; against CDK6/cyclin D3 it was 26 nM; in test [1], 18 nM; in test [2], 3 nM. Moreover, the IC50 in test [3] was 6 nM; in test [4] it was 44 nM.
`CC(C)n1nnc2ccc3cnc(Nc4ccc(C(=O)N5CCC(N)CC5)c(F)c4)nc3c21` [Example I-16, (4-Aminopiperidin-1-yl)(2-fluoro-4-((1-isopropyl-1H-[1,2,3]triazolo[4,5-H]quinazolin-8-yl)amino)phenyl)metha none]: the IC50 at CDK2/cyclin E was found to be 4 nM; at CDK4/cyclin D1, 12 nM; at CDK9/cyclin T1 it was 78 nM; against CDK6/cyclin D3 it was 230 nM; in test [1] it was 90 nM; in test [2], 9 nM. Further, the IC50 in test [3] came to 110 nM; in test [4], 374 nM.
For the compound `C[C@@]1(O)CCC[C@H]1n1nnc2ccc3cnc(Nc4ccc(C(=O)N5CCOCC5)cc4)nc3c21` [Example I-67, (4-((1-((1R,2R)-2-Hydroxy-2-methylcyclopentyl)-1H-[1,2,3]triazolo[4,5-H]quinazolin-8-yl)amino)phenyl)(morpholino)methanone], the IC50 on CDK2/cyclin E turned out to be 1 nM; against CDK4/cyclin D1, 2 nM; against CDK9/cyclin T1 it was 46 nM; against CDK6/cyclin D3, 21 nM; in test [1] it was 45 nM; in test [2], 5 nM. Also, the IC50 was 13 nM in test [3] and 137 nM in test [4].
`C[C@@H](n1nnc2ccc3cnc(Nc4ccc(C(=O)N5CCNCC5)cc4)nc3c21)C(C)(C)O` [Example I-56, (R)-(4-((1-(3-Hydroxy-3-methylbutan-2-yl)-1H-[1,2,3]triazolo[4,5-H]quinazolin-8-yl)amino)phenyl)(piperazin-1-yl)methanone]: the IC50 at CDK2/cyclin E was 0.8 nM; against CDK4/cyclin D1, 1 nM; against CDK9/cyclin T1 it was 15 nM; against CDK6/cyclin D3, 4 nM; in test [1] it was 275 nM; in test [2] it was 11 nM. Further, the IC50 in test [3] was determined as 81 nM; in test [4], 365 nM.
As to `C[C@@]1(O)CCC[C@H]1n1nnc2ccc3cnc(Nc4ccc(S(=O)(=O)NCCO)cc4)nc3c21` [Example I-71], the IC50 on CDK2/cyclin E amounted to 0.9 nM; against CDK4/cyclin D1, 1 nM; against CDK9/cyclin T1, 9 nM; against CDK6/cyclin D3, 6 nM; in test [1] it was 5 nM; in test [2], 2 nM. Moreover, the IC50 in test [3] was 3 nM; in test [4], 18 nM.
On to `CC(C)n1nnc2ccc3cnc(Nc4ccc(C(=O)N5CC[C@@H](N)C5)cc4)nc3c21` [Example I-5, (R)-(3-Aminopyrrolidin-1-yl)(4-((1-isopropyl-1H-[1,2,3]triazolo[4,5-H]quinazolin-8-yl)amino)phenyl)metha none], for which the IC50 on CDK2/cyclin E turned out to be 0.07 nM; against CDK4/cyclin D1 it was 0.8 nM; on CDK9/cyclin T1, 7 nM; against CDK6/cyclin D3, 10 nM; in test [1], 12 nM; in test [2], 3 nM. Further, the results for the IC50 in test [3] and in test [4] were 11 nM and 53 nM, respectively.
Regarding `C[C@@]1(O)CCC[C@H]1n1nnc2ccc3cnc(Nc4ccc(C(=O)N5CC[C@H](N)C5)cc4)nc3c21` [Example I-62, ((S)-3-Aminopyrrolidin-1-yl)(4-((1-((1R,2R)-2-hydroxy-2-methylcyclopentyl)-1H-[1,2,3]triazolo[4,5-H]quinazolin-8-yl)amino)phenyl)methanone], the IC50 on CDK2/cyclin E came to 0.08 nM; at CDK4/cyclin D1 it was 0.5 nM; at CDK9/cyclin T1 it was 3 nM; against CDK6/cyclin D3, 4 nM; in test [1] it was 28 nM; in test [2], 5 nM. Besides, the IC50 in test [3] was 8 nM; in test [4] it was 54 nM.
Regarding `CC(C)n1nnc2ccc3cnc(Nc4ccc(C(=O)N5CCNC(C)(C)C5)cc4)nc3c21` [Example I-22, (3,3-Dimethylpiperazin-1-yl)(4-((1-isopropyl-1H-[1,2,3]triazolo[4,5-H]quinazolin-8-yl)amino)phenyl)metha none], the IC50 on CDK2/cyclin E was 2 nM; against CDK4/cyclin D1, 4 nM; at CDK9/cyclin T1, 4 nM; against CDK6/cyclin D3, 23 nM; in test [1], 27 nM; in test [2], 5 nM. Further, the IC50 was 56 nM in test [3] and 115 nM in test [4].
Turning to `C[C@@H](n1nnc2ccc3cnc(Nc4ccc(C(=O)N5CC[C@H](N)C5)cc4)nc3c21)C(C)(C)O` [Example I-54, ((S)-3-Aminopyrrolidin-1-yl)(4-((1-((R)-3-hydroxy-3-methylbutan-2-yl)-1H-[1,2,3]triazolo[4,5-h]quinazolin-8-yl)amino)phenyl)methanone], the IC50 was 1 nM on CDK2/cyclin E; 2 nM on CDK4/cyclin D1; 8 nM on CDK9/cyclin T1; 16 nM against CDK6/cyclin D3; 192 nM in test [1]; 7 nM in test [2]. Also, the IC50 in test [3] was found to be 49 nM; in test [4], 268 nM.
As for `CC(C)n1nnc2ccc3cnc(Nc4ccc(C(=O)N5CCN[C@@H](C)C5)cc4)nc3c21` [Example I-20, (S)-(4-((1-Isopropyl-1H-[1,2,3]triazolo[4,5-H]quinazolin-8-yl)amino)phenyl)(3-methylpiperazin-1-yl)methanone], the IC50 at CDK2/cyclin E was 1 nM; on CDK4/cyclin D1, 1 nM; on CDK9/cyclin T1 it was 3 nM; on CDK6/cyclin D3, 16 nM; in test [1], 39 nM; in test [2] it was 6 nM. Further, the IC50 in test [3] worked out at 23 nM; in test [4] it was 109 nM.
